From patent US9302999B2, “Substituted triazoles as herbicides” (E. I. DU PONT DE NEMOURS AND COMPANY, priority 2012, dated 2016)

Assays:
corn (Zea mays) = assay: Test F pre-/postemergence: corn; type: in vivo
Text: (§1) Seeds of plant species selected from corn (Zea mays), soybean (Glycine max), velvetleaf (Abutilon theophrasti), lambsquarters (Chenopodium album), poinsettia, wild (wild poinsettia, Euphorbia heterophylla), pigweed, palmer (palmer pigweed, Amaranthus palmeri), waterhemp (common waterhemp, Amaranthus rudis), surinam grass (Brachiaria decumbens), crabgrass, Brazil (Brazilian crabgrass, Digitaria horizontalis), panicum, fall (fall panicum Panicum dichotomiflorum), crabgrass, large (large crabgrass, Digitaria sanguinalis), foxtail, giant (giant foxtail, Setaria faberii), foxtail, green (green foxtail Setaria viridis), goosegrass (Eleusine indica), ragweed (common ragweed, Ambrosia elatior), barnyardgrass (Echinochloa crus-galli), sandbur (southern sandbur, Cenchrus echinatus), arrowleaf sida (Sida rhombifolia), ryegrass, Italian (Italian ryegrass, Lolium multiflorum), dayflower, VA (Virginia (VA) dayflower, Commelina virginica), field bindweed (Convolvulus arvensis), cocklebur (common cocklebur, Xanthium strumarium), morningglory (Ipomoea coccinea), nightshade (eastern black nightshade, Solanum ptycanthum), kochia (Kochia scoparia), nutsedge, yellow (yellow nutsedge, Cyperus esculentus), johnsongrass (Sorghum halepense), smartweed (ladysthumb smartweed, Polygonum persicaria), and beggarticks (hairy beggarticks, Bidens pilosa), were planted into a silt loam soil and treated preemergence with test chemicals formulated in a non-phytotoxic solvent mixture which included a surfactant. At the same time, plants selected from these crop and weed species and also pigweed (Amaranthus retroflexus), waterhemp_RES1 (ALS/Triazine resistant common waterhemp, Amaranthus rudis) and waterhemp_RES2 (ALS/HPPD resistant common waterhemp, Amaranthus rudis) were planted in pots containing a planting medium comprising spaghnum peat moss, vermiculite, wetting agent and starter nutrients treated with postemergence applications of some of the test chemicals formulated in the same manner. Plants ranged in height from 2 to 18 cm for postemergence treatments (1- to 4-leaf stage).
(§2) Treated plants and controls were maintained in a greenhouse for 14 to 21 days, after which time all species were compared to controls and visually evaluated. Plant response ratings, summarized in Table E, are based on a scale of 0 to 100 where 0 is no effect and 100 is complete control. A dash (-) response means no test result.

[1] = test system: velvetleaf (Abutilon theophrasti); assay: Test F pre-/postemergence: velvetleaf; type: in vivo; settings: Preemergence
Text: as §1, §2

[2] = test system: sandbur (southern sandbur, Cenchrus echinatus); assay: Test F pre-/postemergence: sandbur; type: in vivo
Text: as §1, §2

[3] = test system: field bindweed (Convolvulus arvensis); assay: Test F pre-/postemergence: field bindweed; type: in vivo
Text: as §1, §2

[4] = test system: pigweed, palmer (palmer pigweed, Amaranthus palmeri); assay: Test F pre-/postemergence: pigweed, palmer; type: in vivo; settings: Postemergence, scale 0 to 100
Text: as §1, §2

Waterhemp = assay: Test C preemergence: waterhemp; type: in vivo, Amaranthus rudis; settings: scale 0 to 100, 0 no effect, 100 complete control
[5] = Preemergence, 16 g ai/ha, scale 0 to 100 (0 no effect, 100 complete control)
[6] = Preemergence, 31 g ai/ha, scale 0 to 100 (0 no effect, 100 complete control)
[7] = Preemergence, 62 g ai/ha, scale 0 to 100
[8] = Preemergence, 125 g ai/ha, scale 0 to 100
[9] = Postemergence, 8 g ai/ha, scale 0 to 100
[10] = Postemergence, 16 g ai/ha, scale 0 to 100
[11] = Postemergence, 31 g ai/ha, scale 0 to 100
[12] = Postemergence, 62 g ai/ha, scale 0 to 100
[13] = Postemergence, 125 g ai/ha, scale 0 to 100

SMILES: Fc1ccc(-n2nc(Cc3ccnc(C(F)(F)F)c3)c(OCC(F)(F)F)n2)cc1 [Compound 142]
- Plant response rating, Corn (corn (Zea mays); [5]): 0
- Plant response rating, Corn (corn (Zea mays); [6]): 0
- Plant response rating, Corn (corn (Zea mays); [7]): 0
- Plant response rating, Corn (corn (Zea mays); [8]): 0
- Plant response rating, Velvetleaf ([1]; 16 g ai/ha, scale 0 to 100 (0 no effect, 100 complete control)): 0
- Plant response rating, Velvetleaf ([1]; 31 g ai/ha, scale 0 to 100 (0 no effect, 100 complete control)): 0
- Plant response rating, Velvetleaf ([1]; 125 g ai/ha, scale 0 to 100): 75
- Plant response rating, Sandbur [2, 5]: 5
- Plant response rating, Sandbur [2, 6]: 5
- Plant response rating, Sandbur [2, 8]: 70
- Plant response rating, Field Bindweed [3, 5]: 20
- Plant response rating, Field Bindweed [3, 6]: 50
- Plant response rating, Field Bindweed [3, 7]: 75
- Plant response rating, Field Bindweed [3, 8]: 98

SMILES: Cc1nn(-c2ccc(F)c(F)c2)nc1Oc1ccnc(C(F)(F)F)c1 [Compound 145]
- Plant response rating, Corn (corn (Zea mays); [9]): 5
- Plant response rating, Corn (corn (Zea mays); [10]): 10
- Plant response rating, Corn (corn (Zea mays); [11]): 10
- Plant response rating, Corn (corn (Zea mays); [12]): 10
- Plant response rating, Corn (corn (Zea mays); [13]): 10
- Plant response rating, Pigweed, Palmer ([4]; 8 g ai/ha): 40
- Plant response rating, Pigweed, Palmer ([4]; 16 g ai/ha): 70
- Plant response rating, Pigweed, Palmer ([4]; 62 g ai/ha): 85
- Plant response rating, Pigweed, Palmer ([4]; 125 g ai/ha): 90
- Plant response rating, Sandbur [2, 9]: 10
- Plant response rating, Sandbur [2, 10]: 20
- Plant response rating, Sandbur [2, 11]: 30
- Plant response rating, Sandbur [2, 12]: 35
- Plant response rating, Sandbur [2, 13]: 35
- Plant response rating, Field Bindweed [3, 9]: 50
- Plant response rating, Field Bindweed [3, 10]: 60
- Plant response rating, Field Bindweed [3, 12]: 70
- Plant response rating, Field Bindweed [3, 13]: 75

SMILES: CCc1nn(-c2ccc(F)cc2)nc1Oc1ccnc(C(F)(F)F)c1 [Compound 166]
- Plant response rating, Waterhemp (Waterhemp; 125 g ai/ha): 100
- Plant response rating, Waterhemp (Waterhemp; 250 g ai/ha): 100
